Common to all, as to type: in vivo
Test [1] relates to littleseed Canarygrass (Phalaris minor L; PHAMI). Nature of the test: Postemergence herbicidal activity of mixtures in cereal crops (greenhouse, visual injury). Conditions: for PHAMI: Table 13. An outline of the steps: (§1)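 Plants at second-third true leaf stage sprayed postemergence at 187 L/ha with compound and second cereal herbicide alone and combined; solvent blank controls. Visual injury scored 0-100% versus controls after 20-22 days; expected mixture effects by Colby's equation.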

For test [2], the system named is wild oats (Avena fatua L; AVEFA). Described as above. An outline of the steps:
as §1

In test [3] the test system is Echinochloa species (ECHSS). Nature of the test: Herbicidal mixtures for weed control in transplanted paddy rice (in-water application, visual % injury after 3 weeks). Conditions: for % Injury ECHOR Ob: ECHOR = Echinocloa oryzoides; for % Injury ECHCG Ob: ECHCG = Echinochloa crus-galli. An outline of the steps: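 Read-out: visual injury scored 0 (none) to 100 (complete kill) relative to untreated plants 3 weeks after treatment. Plants at the second or third true leaf stage in flooded mud received an injection of herbicide stock into the water; solvent-blank controls received the same acetone and crop oil levels.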

The mark [4] stands for this setting: Compound A TEA 35 g/ha alone (Table 111).

SMILES strings stand for the structures.

`COC(=O)c1nc(-c2ccc(Cl)c(OC)c2F)cc(N)c1Cl` [Compound A Methyl, 4-amino-3-chloro-6-(4-chloro-2-fluoro-3-methoxyphenyl)pyridine-2-carboxylic acid methyl ester]: the “PHAMI Ob” value in test [1] (17.5 g/ha, Table 4) came to 20%; in test [1] (17.5 g/ha, Table 5), 20%; in test [1] (17.5 g/ha, Table 6), 20%; in test [1] (35 g/ha, Table 3), 30%; in test [1] (35 g/ha, Table 4), 30%; in test [1] (35 g/ha, Table 5), 30%. The “PHAMI Ob” value was 30% in test [1] (35 g/ha, Table 6); 3% in test [1] (35 g/ha, Table 11); 35% in test [1] (70 g/ha, Table 3); 35% in test [1] (70 g/ha, Table 4); 35% in test [1] (70 g/ha, Table 5); 35% in test [1] (70 g/ha, Table 6). Also, the “PHAMI Ob” value in test [1] (70 g/ha, Table 11) is reported as 6%; in test [1] (140 g/ha, Table 11) it was 17%. The “AVEFA Ob” value is 30% in test [2] (17.5 g/ha, Table 1); 0% in test [2] (17.5 g/ha, Table 4); 0% in test [2] (17.5 g/ha, Table 5); 30% in test [2] (35 g/ha, Table 1); 40% in test [2] (35 g/ha, Table 3); 40% in test [2] (35 g/ha, Table 4). Moreover, the “AVEFA Ob” value in test [2] (35 g/ha, Table 5) was found to be 40%; in test [2] (70 g/ha, Table 1), 35%; in test [2] (70 g/ha, Table 3), 45%; in test [2] (70 g/ha, Table 4), 45%; in test [2] (70 g/ha, Table 5) it was 45%. The “% Injury Ob” value was 0% in test [3] (ECHCG, 4.38 g/ha alone); 0% in test [3] (ECHCG, 17.5 g/ha alone); 25% in test [3] (ECHCG, 35 g/ha alone); 0% in test [3] (ECHCO, 8.75 g/ha alone); 25% in test [3] (ECHCO, 17.5 g/ha alone); 20% in test [3] (ECHCO, 35 g/ha alone). The “% Injury ECHOR Ob” value in test [3] (Compound A Methyl 17.5 g/ha alone) is on record as 0%; in test [3] (Compound A Methyl 35 g/ha alone) it was 10%.
As to `COc1c(Cl)ccc(-c2cc(N)c(Cl)c(C(=O)O)n2)c1F` [Compound A TEA, 4-amino-3-chloro-6-(4-chloro-2-fluoro-3-methoxyphenyl)pyridine-2-carboxylic acid], the PHAMI in test [1] (35 g/ha), in test [1] (70 g/ha) and in test [1] (140 g/ha) was 0% throughout. The “PHAMI Ob” value in test [1] (35 g/ha, Table 16) was 0%; in test [1] (35 g/ha, Table 18), 0%; in test [1] (70 g/ha, Table 16), 0%; in test [1] (70 g/ha, Table 18), 0%; in test [1] (140 g/ha, Table 16) it was 0%; in test [1] (140 g/ha, Table 18) it was 0%. Also, the “AVEFA Ob” value in test [2] (35 g/ha, Table 14) was found to be 0%; in test [2] (35 g/ha, Table 17), 0%; in test [2] (35 g/ha, Table 18) it was 0%; in test [2] (70 g/ha, Table 14) it was 0%; in test [2] (70 g/ha, Table 17), 3%; in test [2] (70 g/ha, Table 18) it was 0%. The “AVEFA Ob” value stood at 0% in test [2] (140 g/ha, Table 14); 8% in test [2] (140 g/ha, Table 17); 0% in test [2] (140 g/ha, Table 18). The “% Injury ECHCG Ob” value came to 10% in test [3] (Compound A TEA 17.5 g/ha alone), 80% in test [3] (Compound A TEA 35 g/ha alone) and 10% in test [3] (setting [4]). The “% Injury Ob” value in test [3] (ECHCG, 70 g/ha alone) is listed as 50%. Moreover, the “% Injury ECHOR Ob” value is listed as 0% in test [3] (Compound A TEA 17.5 g/ha alone (Table 113)), 10% in test [3] (setting [4]) and 10% in test [3] (Compound A TEA 35 g/ha alone (Table 113)).
Consider `COC(=O)c1nc(-c2ccc(Cl)c(OC)c2F)nc(N)c1Cl` [Compound B Methyl, 6-amino-5-chloro-2-(4-chloro-2-fluoro-3-methoxyphenyl)pyrimidine-4-carboxylic acid methyl ester], for which the “PHAMI Ob” value worked out at 0% in test [1] (8.75 g/ha); 0% in test [1] (8.75 g/ha, Table 20); 0% in test [1] (8.75 g/ha, Table 22); 0% in test [1] (17.5 g/ha); 0% in test [1] (17.5 g/ha, Table 20); 0% in test [1] (17.5 g/ha, Table 22). Besides, the “PHAMI Ob” value in test [1] (35 g/ha) was 0%; in test [1] (35 g/ha, Table 20), 0%; in test [1] (35 g/ha, Table 22), 0%; in test [1] (70 g/ha), 0%; in test [1] (70 g/ha, Table 20), 0%; in test [1] (70 g/ha, Table 22), 0%. The “AVEFA Ob” value in test [2] (8.75 g/ha) came out at 0%; in test [2] (8.75 g/ha, Table 20) it was 0%; in test [2] (17.5 g/ha) it was 0%; in test [2] (17.5 g/ha, Table 20) it was 0%; in test [2] (35 g/ha), 0%; in test [2] (35 g/ha, Table 20), 0%. Besides, the “AVEFA Ob” value in test [2] (70 g/ha) came out at 0%; in test [2] (70 g/ha, Table 20) it was 0%.
In the case of `O=C(O)c1c(Cl)ccc2cc(Cl)cnc12` [Quinclorac], the “% Injury ECHCG Ob” value in test [3] (Quinclorac 70 g/ha alone) and in test [3] (Quinclorac 140 g/ha alone) was 0% in each case. For the same molecule, in test [3] (Quinclorac 70 g/ha alone), the “% Injury ECHOR Ob” value stood at 0%.
